Values quoted from earlier work in PMC6929995, “Rod-shape theranostic nanoparticles facilitate antiretroviral drug biodistribution and activity in human immunodeficiency virus susceptible cells and tissues” (Theranostics, 2020).

Tested on: HIV-1

For Cc1cc(/C=C/C#N)cc(C)c1Nc1ccnc(Nc2ccc(C#N)cc2)n1 [RPV, rilpivirine], the potency is listed as “sub-nanomolar range”.
